Patent publication US20200147059A1, “NEW THERAPEUTIC USES OF ENZYME INHIBITORS” (Proximagen, LLC, priority 2017, published 2020)

Assays:
VAP-1 = target: T1, VAP-1 (Homo sapiens, UniProt Q16853); settings: known; cited from earlier work
T1 sequence (Q16853 1-763): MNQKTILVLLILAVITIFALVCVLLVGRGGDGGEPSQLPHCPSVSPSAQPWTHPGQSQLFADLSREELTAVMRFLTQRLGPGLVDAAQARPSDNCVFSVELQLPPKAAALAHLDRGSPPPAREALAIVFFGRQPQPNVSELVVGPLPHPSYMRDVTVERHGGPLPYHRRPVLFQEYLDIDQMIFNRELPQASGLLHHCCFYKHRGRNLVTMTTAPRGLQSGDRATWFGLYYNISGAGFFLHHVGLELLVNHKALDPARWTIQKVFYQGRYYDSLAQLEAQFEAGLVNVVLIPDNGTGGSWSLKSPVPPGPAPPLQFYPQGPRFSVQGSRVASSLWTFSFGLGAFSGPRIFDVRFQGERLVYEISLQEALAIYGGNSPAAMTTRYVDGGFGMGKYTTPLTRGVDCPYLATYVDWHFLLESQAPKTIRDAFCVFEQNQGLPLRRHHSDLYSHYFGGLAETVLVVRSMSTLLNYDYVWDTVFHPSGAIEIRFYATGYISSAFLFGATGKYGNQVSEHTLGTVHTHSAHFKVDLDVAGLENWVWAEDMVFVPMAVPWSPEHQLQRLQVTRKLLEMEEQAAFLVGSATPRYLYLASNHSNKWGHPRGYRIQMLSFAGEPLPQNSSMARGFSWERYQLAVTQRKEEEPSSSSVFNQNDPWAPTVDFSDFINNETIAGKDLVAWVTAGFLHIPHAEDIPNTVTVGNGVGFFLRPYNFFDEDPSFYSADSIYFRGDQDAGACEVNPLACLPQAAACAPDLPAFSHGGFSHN

human VAP-1 (SSAO) = target: T2, human VAP-1 (SSAO) (Homo sapiens, UniProt Q16853); experiment: VAP-1 Inhibition Assay; type: biochemical; settings: purified recombinantly expressed human VAP-1 (SSAO), benzylamine substrate, room temperature
T2 construct: made in house
T2 sequence (Q16853 29-763 limits assumed): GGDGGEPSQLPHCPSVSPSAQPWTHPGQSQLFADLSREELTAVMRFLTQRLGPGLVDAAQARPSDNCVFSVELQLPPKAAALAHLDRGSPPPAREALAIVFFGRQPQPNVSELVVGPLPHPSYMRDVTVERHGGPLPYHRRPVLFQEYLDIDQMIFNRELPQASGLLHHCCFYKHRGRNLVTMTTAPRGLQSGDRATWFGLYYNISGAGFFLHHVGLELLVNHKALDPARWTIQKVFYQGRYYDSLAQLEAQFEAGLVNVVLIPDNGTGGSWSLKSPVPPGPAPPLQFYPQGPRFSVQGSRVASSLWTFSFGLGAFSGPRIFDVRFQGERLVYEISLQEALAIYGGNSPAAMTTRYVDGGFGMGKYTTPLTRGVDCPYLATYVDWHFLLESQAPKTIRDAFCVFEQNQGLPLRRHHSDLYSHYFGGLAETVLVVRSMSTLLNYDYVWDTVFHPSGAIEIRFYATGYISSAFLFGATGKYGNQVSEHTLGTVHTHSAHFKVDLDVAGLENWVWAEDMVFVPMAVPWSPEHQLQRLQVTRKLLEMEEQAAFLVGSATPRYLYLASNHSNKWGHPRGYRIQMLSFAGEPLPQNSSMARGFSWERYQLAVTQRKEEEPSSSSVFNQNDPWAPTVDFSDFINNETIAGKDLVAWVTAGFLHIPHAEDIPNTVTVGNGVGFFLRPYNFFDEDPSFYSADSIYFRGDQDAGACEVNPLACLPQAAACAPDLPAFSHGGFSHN
Method: This assay is performed at room temperature with purified recombinantly expressed human VAP-1 (SSAO). Enzyme was prepared essentially as described in Ohman et al. (Protein Expression and Purification 46 (2006) 321-331). The enzyme activity is assayed with benzylamine as substrate by measuring either benzaldehyde production, using 14C-labeled substrate, or by utilizing the production of hydrogen peroxide in a horseradish peroxidise (HRP) coupled reaction. Briefly, test compounds are dissolved in dimethyl sulfoxide (DMSO) to a concentration of 10 mM. Dose-response measurements are assayed by either creating 1:10 serial dilutions in DMSO to produce a 7 point curve or by making 1:3 serial dilutions in DMSO to produce 11 point curves. The top concentrations are adjusted depending on the potency of the compounds and subsequent dilution in reaction buffer yielded a final DMSO concentration ≤2%.
Hydrogen peroxide detection: In a horseradish peroxidise (HRP) coupled reaction, hydrogen peroxide oxidation of 10-acetyl-3,7-dihydroxyphenoxazine produces resorufin, which is a highly fluorescent compound (Zhout and Panchuk-Voloshina. Analytical Biochemistry 253 (1997) 169-174; AmplexR Red Hydrogen Peroxide/peroxidise Assay kit, Invitrogen A22188). Enzyme and compounds in 50 mM sodium phosphate, pH 7.4 are set to pre-incubate in flat-bottomed microtiter plates for approximately 15 minutes before initiating the reaction by addition of a mixture of HRP, benzylamine and Amplex reagent. Benzylamine concentration is fixed at a concentration corresponding to the Michaelis constant, determined using standard procedures. Fluorescence intensity is then measured at several time points during 1-2 hours, exciting at 544 nm and reading the emission at 590 nm. For the human SSAO assay final concentrations of the reagents in the assay wells are: SSAO enzyme 1 mg/ml, benzylamine 100 μM, Amplex reagent 20 μM, HRP 0.1 U/mL and varying concentrations of test compound. The inhibition is measured as % decrease of the signal compared to a control without inhibitor (only diluted DMSO). The background signal from a sample containing no SSAO enzyme is subtracted from all data points. Data is fitted to a four parameter logistic model and IC50 values are calculated, for example by using the GraphPad Prism 4 or XLfit 4 programs.

sumatriptan-primed rats [1] = experiment: stress induced allodynia in a rat model of medication overuse headache (MOH); type: in vivo; settings: bright light stress, oral 33.3 mg/ml, 3 ml/kg, measured day 21 over 5 h
Method: The effects of compounds on stress induced allodynia in a rat model of medication overuse headache (MOH) The effects of compounds on stress induced cephalic and extracephalic allodynia in sumatriptan-primed rats was tested.
Sprague Dawley rats were implanted with osmotic minipumps (model 2001; Alzet, Cupertino, Calif., USA) providing continuous infusion of sumatriptan (0.6 mg/kg/day, s.c) or vehicle (saline, 0.9% NaCl) for 7 days. Mechanical facial (FIG. 1; A) and hindpaw (FIG. 1; C) allodynia was measured during a 19 day time course.
On day 20, when mechanical thresholds are at basal levels, all rats received either 4-{5-[3-(4-Fluorophenyl)-3H-imidazo[4,5-c]pyridin-2-yl]pyridin-2-yl}morpholine (compound 4) or vehicle orally (33.3 mg/ml, Dose 3 ml/kg) and then they were exposed to bright lights for 1 h (bright light stress; BLS). Rats received a second dose of the assigned treatment in the afternoon.
On day 21 all rats received a third dose of the assigned treatment and then they were again exposed to BLS for 1 h. Mechanical facial (FIG. 1; B) and hindpaw (FIG. 1; D) allodynia was measured over a 5 h time course.
Sumatriptan-treated, but not saline-treated, rats developed generalized allodynia during minipump infusion measured in the periorbital and hindpaw regions (FIG. 1; A, C; day 6). Mechanical thresholds returned to baseline on days 10 and 19. […]

[2] = CNS penetration (brain:plasma ratio); type: in vivo; settings: rat, whole brain homogenate and plasma, intravenous; total brain:plasma ratio adjusted for plasma protein binding and brain tissue binding; read-out: unbound (free) brain:plasma ratio
Text: Central nervous system (CNS) penetration of compounds of the invention can be determined by for example, intravenous dosing in a rat and subsequent quantitative LCMS analysis of the drug concentration in plasma and whole brain homogenate. The total brain:plasma ratio can then be calculated. This total ratio can be adjusted for plasma protein binding (PPB) and brain tissue binding (BTB) determined by standard means to give an unbound (free) brain:plasma ratio. For example, Compound 4 of the invention has an unbound (free) brain:plasma ratio of 0.72, indicating good CNS penetration of the compound.

sumatriptan-primed rats [3] = settings: Kopruszinski et al, Cephalalgia, 2017; cited from earlier work
[4] = phase IIb chronic migraine study; cited from earlier work

C[C@@](Cc1ccc(O)c(O)c1)(NN)C(=O)O [(S)-Carbidopa, reference compound]
inhibition of VAP-1 (VAP-1): very good inhibitors of VAP-1 | IC50 (human VAP-1 (SSAO)): 142 nM

CC(=O)N1CCN(c2ccc(-c3nc4ccncc4n3-c3ccc(F)cc3)cn2)CC1 [Compound 2, 1-(4-{5-[3-(4-Fluorophenyl)-3H-imidazo[4,5-c]pyridin-2-yl]pyridin-2-yl}piperazin-1-yl)ethan-1-one]
IC50 (human VAP-1 (SSAO)): 31 nM

CS(=O)(=O)N1CCN(c2ccc(-c3nc4ccncc4n3-c3ccc(F)cc3)cn2)CC1 [Compound 3, 1-{5-[3-(4-Fluorophenyl)-3H-imidazo[4,5-c]pyridin-2-yl]pyridin-2-yl}-4-methanesulfonylpiperazine]
IC50 (human VAP-1 (SSAO)): 4 nM

Fc1ccc(-n2c(-c3ccc(N4CCOCC4)nc3)nc3ccncc32)cc1 [Compound 4, 4-{5-[3-(4-Fluorophenyl)-3H-imidazo[4,5-c]pyridin-2-yl]pyridin-2-yl}morpholine]
stress-induced hindpaw allodynia (sumatriptan-primed rats [1]): significantly reduced | stress-induced periorbital allodynia (sumatriptan-primed rats [1]): significantly reduced | IC50 (human VAP-1 (SSAO)): 13 nM | unbound brain:plasma ratio (Kp,uu) [2]: 0.72

C=C(CNN)c1ccccc1 [LJP1207, reference compound]
IC50 (human VAP-1 (SSAO)): 34 nM

NC(CO)C(=O)NNCc1ccc(O)c(O)c1O (stereo not drawn) [benserazide, Benserazide]
inhibition of VAP-1 (VAP-1): very good inhibitors of VAP-1

B1: TEV48125: a fully humanised CGRP antibody (antibody, chains of the INN, looked up, V domains shown)
VH: EVQLVESGGGLVQPGGSLRLSCAASGFTFSNYWISWVRQAPGKGLEWVAEIRSESDASATHYAEAVKGRFTISRDNAKNSLYLQMNSLRAEDTAVYYCLAYFDYGLAIQNYWGQGTLVTVSS
VL: EIVLTQSPATLSLSPGERATLSCKASKRVTTYVSWYQQKPGQAPRLLIYGASNRYLGIPARFSGSGSGTDFTLTISSLEPEDFAVYYCSQSYNYPYTFGQGTKLEIK
efficacy in the MOH model (sumatriptan-primed rats [3]): efficacious | efficacy in human clinical trials [4]: efficacious
